Assay results: article PMC5220300, “Variant Ionotropic Receptors in the Malaria Vector Mosquito Anopheles gambiae Tuned to Amines and Carboxylic Acids” (Scientific Reports, 2017)

How the values were obtained:
Type in all cases: cell-based
[1] = target: T1, AgIR41c (Anopheles coluzzii, UniProt A0A6E8W7H2); test: two-electrode voltage clamp, Xenopus oocytes, concentration-response
T1 construct: with AgIr25a and AgIr76b (co-receptors)

[2] = target: T2, AgIR41a (Anopheles coluzzii, UniProt A0A6E8V5R5); test: as above
T2 construct: with AgIr25a and AgIr76b (co-receptors)
T2 sequence (A0A6E8V5R5 1-637): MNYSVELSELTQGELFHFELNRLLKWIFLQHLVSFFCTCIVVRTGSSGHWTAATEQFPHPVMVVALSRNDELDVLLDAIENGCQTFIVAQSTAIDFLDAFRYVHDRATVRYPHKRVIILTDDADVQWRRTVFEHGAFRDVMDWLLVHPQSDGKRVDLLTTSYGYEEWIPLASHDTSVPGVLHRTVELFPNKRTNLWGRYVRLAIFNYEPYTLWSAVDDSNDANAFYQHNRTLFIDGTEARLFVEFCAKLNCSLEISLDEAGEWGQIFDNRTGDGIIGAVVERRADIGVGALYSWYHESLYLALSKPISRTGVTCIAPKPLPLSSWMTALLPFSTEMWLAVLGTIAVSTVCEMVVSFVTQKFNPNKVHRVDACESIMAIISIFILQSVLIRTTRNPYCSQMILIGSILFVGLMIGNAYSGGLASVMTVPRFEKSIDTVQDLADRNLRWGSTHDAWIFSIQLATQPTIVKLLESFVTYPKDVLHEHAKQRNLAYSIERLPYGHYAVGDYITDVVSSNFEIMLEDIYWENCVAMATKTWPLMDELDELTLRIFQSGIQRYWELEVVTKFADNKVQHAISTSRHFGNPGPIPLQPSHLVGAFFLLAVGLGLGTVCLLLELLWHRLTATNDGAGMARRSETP
T2 sequence (A0A1S4H3H9 28-946 partner): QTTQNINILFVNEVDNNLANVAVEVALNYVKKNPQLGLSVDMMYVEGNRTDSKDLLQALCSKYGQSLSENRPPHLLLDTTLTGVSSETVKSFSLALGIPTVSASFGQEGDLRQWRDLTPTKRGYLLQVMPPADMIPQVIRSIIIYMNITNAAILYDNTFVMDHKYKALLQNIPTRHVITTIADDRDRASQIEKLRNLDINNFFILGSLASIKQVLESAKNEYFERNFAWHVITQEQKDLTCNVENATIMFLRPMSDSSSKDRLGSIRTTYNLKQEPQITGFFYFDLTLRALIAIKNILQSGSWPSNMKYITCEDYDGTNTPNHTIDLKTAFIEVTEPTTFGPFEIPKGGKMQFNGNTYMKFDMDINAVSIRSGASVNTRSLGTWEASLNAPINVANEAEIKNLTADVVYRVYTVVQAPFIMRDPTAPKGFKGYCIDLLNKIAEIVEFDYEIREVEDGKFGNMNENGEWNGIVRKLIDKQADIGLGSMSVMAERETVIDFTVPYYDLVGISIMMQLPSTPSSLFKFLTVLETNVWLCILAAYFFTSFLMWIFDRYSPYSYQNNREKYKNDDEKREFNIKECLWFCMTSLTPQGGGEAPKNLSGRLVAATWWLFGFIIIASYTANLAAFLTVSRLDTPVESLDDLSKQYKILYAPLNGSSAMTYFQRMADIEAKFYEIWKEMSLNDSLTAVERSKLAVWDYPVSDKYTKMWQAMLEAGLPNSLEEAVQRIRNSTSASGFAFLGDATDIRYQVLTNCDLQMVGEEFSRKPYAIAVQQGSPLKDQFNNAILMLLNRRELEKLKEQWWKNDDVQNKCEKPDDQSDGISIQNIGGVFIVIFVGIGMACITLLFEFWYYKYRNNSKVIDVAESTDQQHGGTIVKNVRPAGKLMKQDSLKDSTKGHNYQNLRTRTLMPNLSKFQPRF
T2 sequence (A0A6E8W6Y5 1-657 partner): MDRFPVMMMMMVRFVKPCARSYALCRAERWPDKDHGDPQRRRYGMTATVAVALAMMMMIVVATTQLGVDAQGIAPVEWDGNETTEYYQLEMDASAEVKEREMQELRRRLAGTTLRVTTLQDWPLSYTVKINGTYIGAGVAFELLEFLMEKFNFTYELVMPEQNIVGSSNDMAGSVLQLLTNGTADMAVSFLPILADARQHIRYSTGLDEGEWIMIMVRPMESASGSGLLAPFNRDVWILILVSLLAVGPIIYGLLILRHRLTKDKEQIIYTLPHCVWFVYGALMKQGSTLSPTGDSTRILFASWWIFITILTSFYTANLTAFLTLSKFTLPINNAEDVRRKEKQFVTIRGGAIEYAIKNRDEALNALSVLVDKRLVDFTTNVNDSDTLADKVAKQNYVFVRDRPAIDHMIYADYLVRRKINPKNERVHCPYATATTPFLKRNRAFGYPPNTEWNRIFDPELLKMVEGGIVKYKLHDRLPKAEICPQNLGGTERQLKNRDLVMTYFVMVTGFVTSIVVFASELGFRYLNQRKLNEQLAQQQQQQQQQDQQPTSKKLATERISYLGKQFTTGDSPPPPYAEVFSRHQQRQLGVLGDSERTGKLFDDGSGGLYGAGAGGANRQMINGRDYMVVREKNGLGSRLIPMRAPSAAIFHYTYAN

[3] = target: T3, AgIR75k (Anopheles coluzzii, UniProt A0A6E8VT06); test: as above
T3 construct: with AgIr8a (co-receptor)
T3 sequence (A0A6E8VT06 26-675): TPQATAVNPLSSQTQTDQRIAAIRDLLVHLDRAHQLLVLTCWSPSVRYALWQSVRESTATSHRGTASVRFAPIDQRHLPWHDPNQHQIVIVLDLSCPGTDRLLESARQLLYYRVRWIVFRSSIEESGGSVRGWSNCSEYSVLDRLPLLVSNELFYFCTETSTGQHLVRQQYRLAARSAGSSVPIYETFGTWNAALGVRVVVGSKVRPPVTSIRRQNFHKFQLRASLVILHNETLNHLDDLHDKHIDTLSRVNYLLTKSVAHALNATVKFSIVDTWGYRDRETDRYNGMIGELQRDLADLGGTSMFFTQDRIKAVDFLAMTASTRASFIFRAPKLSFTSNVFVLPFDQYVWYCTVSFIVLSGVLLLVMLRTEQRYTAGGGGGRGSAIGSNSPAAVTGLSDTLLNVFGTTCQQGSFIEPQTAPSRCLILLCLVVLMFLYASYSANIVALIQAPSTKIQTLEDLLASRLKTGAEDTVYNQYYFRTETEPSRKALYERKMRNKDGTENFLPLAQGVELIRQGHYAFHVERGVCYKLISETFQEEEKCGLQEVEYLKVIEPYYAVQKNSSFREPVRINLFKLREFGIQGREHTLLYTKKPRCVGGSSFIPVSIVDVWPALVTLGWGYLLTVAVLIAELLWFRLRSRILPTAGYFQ
T3 sequence (A0A6E8W0A6 1-828 partner): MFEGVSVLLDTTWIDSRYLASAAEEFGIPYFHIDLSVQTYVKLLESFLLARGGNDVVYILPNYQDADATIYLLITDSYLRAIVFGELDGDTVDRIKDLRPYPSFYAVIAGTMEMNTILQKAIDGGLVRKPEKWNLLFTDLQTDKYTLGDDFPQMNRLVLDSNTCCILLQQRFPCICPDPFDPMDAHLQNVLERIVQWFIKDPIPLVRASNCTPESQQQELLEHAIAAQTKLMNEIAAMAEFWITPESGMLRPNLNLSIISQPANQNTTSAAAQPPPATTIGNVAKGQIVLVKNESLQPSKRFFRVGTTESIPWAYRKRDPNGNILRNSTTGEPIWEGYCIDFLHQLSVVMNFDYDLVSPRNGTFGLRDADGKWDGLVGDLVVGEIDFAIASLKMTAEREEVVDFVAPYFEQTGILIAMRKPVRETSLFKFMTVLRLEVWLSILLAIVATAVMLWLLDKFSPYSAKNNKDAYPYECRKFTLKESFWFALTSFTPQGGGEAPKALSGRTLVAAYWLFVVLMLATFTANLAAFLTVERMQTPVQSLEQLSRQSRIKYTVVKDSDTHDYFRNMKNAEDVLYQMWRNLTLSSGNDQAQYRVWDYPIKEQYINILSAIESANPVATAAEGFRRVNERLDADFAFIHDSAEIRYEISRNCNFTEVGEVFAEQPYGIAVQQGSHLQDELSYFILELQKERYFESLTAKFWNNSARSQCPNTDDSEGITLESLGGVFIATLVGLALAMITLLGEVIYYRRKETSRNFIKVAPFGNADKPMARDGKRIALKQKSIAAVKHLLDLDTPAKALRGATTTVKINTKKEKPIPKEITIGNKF

[4] = target: T3, AgIR75k; test: two-electrode voltage clamp, Xenopus oocytes, […] single concentration

T1 sequence (A0A6E8W7H2 1-669, one chain of several): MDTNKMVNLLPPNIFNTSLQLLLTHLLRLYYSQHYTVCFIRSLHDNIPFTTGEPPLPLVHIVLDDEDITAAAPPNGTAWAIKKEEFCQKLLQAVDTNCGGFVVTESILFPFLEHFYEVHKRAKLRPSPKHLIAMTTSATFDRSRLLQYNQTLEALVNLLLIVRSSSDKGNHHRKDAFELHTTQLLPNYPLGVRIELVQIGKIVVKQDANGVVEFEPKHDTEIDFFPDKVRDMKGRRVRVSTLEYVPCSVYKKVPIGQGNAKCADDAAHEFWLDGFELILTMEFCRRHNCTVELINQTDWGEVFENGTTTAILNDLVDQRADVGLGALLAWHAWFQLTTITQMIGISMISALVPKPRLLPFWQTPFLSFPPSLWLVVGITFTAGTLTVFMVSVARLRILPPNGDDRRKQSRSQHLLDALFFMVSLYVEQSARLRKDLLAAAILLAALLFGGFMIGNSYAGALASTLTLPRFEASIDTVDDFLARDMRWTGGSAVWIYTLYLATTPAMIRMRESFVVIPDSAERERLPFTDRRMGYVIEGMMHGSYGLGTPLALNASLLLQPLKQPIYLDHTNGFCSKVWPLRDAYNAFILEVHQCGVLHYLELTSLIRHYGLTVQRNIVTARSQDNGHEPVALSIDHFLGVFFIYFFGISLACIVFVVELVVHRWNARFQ

C1CCNC1 [pyrrolidine]
EC50 [1]: 3.4 µM
EC50 [2]: 110 µM

CCCCCCCCC(=O)O [nonanoic acid]
EC50 [3]: 35 µM

CCCCCCCC(=O)O [octanoic acid]
two-electrode voltage clamp, Xenopus oocytes, 10^-4 M single concentration [4]: octanoic and nonanoic acids elicited the greatest inward currents
